{"source": "patent US8932558B2", "about": "“Multi-subunit biological complexes for treatment of plaque-associated diseases” (Plaxgen Inc, priority 2007, dated 2015)", "key": {"[1]": {"molecular_target": "iron-loaded abeta42 templates (Homo sapiens, UniProt P05067)", "sequence (P05067 672-713 limits assumed)": "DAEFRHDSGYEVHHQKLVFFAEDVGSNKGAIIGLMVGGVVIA", "assay": "Binding of proteins to iron-loaded abeta42 templates", "details": "SDS-PAGE", "excerpt": "FIG. 46 illustrates an example involving the identification of proteins that bind to iron-loaded abeta42 templates. The iron-loaded abeta42 templates are combined with known and unknown cell extracts (CE) and subjected to CPA, as described herein. To determine which proteins successfully bind the templates, the final template complexes are suspended in denaturing sample buffer, boiled, and loaded into SDS-PAGE gel. The gels are then stained with coomassie blue or silver stain in order to visualize the binding proteins. […] In the negative control, no significant binding is observed when the proteins are incubated in the absence of the templates.\nIn experiments such as these, known and unknown cell extract proteins that are used for the complex formation with the aggregates are diluted in PBS to a 1 mg/ml concentration and stored at −70° C. as 50 μl aliquots. These samples are thawed on ice and centrifuged (13000 rpm, 15 min, 4° C.) to remove any precipitation. The supernatant containing soluble proteins is used to form complexes with the aggregates. Various proteins are screened against the iron loaded abeta42 aggregates for examining their binding. Binding experiments are performed in PBS (50 μl, pH 7.3) containing 6.0 μg of iron loaded abeta 42 aggregates and 1.0 μg of each protein. The mixture is incubated at 37° C. for 1 hr. After that, the samples are centrifuged (9000 rpm, 9 min, 15° C.) and the complexes are washed five times with 100 μl PBST (PBS containing 0.05% of Tween 20). After each wash, the supernatant is discarded and the complexes are transferred to a new tube to avoid any carry-over of the proteins. The final complexes are suspended in 20 μl of PBS to which 5.0 μl of denaturing sample solublising buffer (Bio Rad, CA, USA) is added. After boiling the samples for 10 min they are loaded into 4-20% SDS-PAGE (Cambrex Bio Sci, ME, USA). The proteins in the gels are detected using coomassie blue or silver stain (Owl silver stain, Pierce, Ill., USA). All the binding and the CPA experiments are carried out in low protein bind 1.7 ml centrifuge tubes (Effentorf, Calif.)."}, "CP aggregates [2]": {"tested_on": "CP aggregates", "assay": "Binding of proteins with calcium containing aggregates", "details": "2 μg protein, 37° C., 1 hr", "description": "(§1) The Proteins used for binding with the aggregates are diluted first in the PBS to make 1 mg/ml concentration and then stored at −20° C. as 50 μl aliquots. These samples are then thawed on ice and centrifuged (10,000 rpm, 10 min, 4° C.) to remove any precipitation and the supernatant containing only the soluble proteins are used for binding studies. To start with, for identification of proteins binding with calcium containing aggregates, a number of proteins are screened individually with the aggregates. Binding experiment is performed in 100 μl reaction (50 μl PBS buffer and 50 μl of individual aggregates) containing 2 μg of protein and the mixtures are incubated at 37° C. for 1 hr. For control experiments, protein (2 μg) is mixed in 100 μl PBS without aggregates. After the binding, the mixture is centrifuged (2500 rpm, 2 min, 20° C.) and the pellet is washed four times with 200 μl PBST (Tween 20, 0.05%). After each wash the supernatant is discarded and the complexes are transferred to a new microfuge tube to avoid any carry-over of the proteins. The calcium containing aggregates-protein complexes are suspended in 20 μl of PBS to which 5 μl of EDTA (25 mM final concentration) is added for solubilization of the complexes. Finally, the solublized samples are used for protein quantitation using protein estimation kit (Pierce, Ill.) and the data are used in the Microsoft Excel program to generate Graph 1 (FIG. 4). All the binding experiments and subsequent CPA experiments are carried out in low protein bind 1.7 ml centrifuge tubes (Effentorf, Calif.). For all the following binding experiments the same buffer, centrifugation and washing conditions are used."}, "[3]": {"molecular_target": "T1, PLG attached to complexes of iron loaded abeta42 aggregates (Homo sapiens, UniProt P00747)", "T1 construct": "Lys-Plasminogen (PLG); purchased Enzyme Research Laboratories (IN, USA)", "T1 sequence (P00747 97-810, one chain of several)": "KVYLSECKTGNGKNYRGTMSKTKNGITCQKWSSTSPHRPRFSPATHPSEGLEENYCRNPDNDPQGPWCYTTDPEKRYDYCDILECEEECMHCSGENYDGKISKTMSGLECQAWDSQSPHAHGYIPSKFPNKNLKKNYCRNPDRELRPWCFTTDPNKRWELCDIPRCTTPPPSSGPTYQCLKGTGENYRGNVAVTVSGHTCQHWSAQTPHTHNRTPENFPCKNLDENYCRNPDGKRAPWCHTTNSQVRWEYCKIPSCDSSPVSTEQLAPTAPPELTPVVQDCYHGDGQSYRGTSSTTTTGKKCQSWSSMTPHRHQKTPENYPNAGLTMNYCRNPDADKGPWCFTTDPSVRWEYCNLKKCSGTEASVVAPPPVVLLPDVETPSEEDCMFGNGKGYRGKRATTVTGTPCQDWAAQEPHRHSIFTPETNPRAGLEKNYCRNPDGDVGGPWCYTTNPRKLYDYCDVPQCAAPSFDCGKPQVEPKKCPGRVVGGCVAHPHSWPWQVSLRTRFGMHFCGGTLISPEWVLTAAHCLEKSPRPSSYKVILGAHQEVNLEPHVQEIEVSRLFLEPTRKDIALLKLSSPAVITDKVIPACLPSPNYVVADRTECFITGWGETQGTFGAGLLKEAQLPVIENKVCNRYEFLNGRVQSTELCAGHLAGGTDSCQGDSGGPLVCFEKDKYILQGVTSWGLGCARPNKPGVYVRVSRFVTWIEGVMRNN", "assay": "Activation of complex-bound PLG by u-PA or t-PA", "assay_type": "biochemical", "description": "This example illustrates a method of evaluating the conformation and functionality of PLG attached to template complexes. Three groups of experiments are carried out to add the PLG at different layers of plaque complex formation. Group I includes three independent reactions containing both the PLG and BSA (0.5 μg each) that are added in the first cycle of the complex formation with the templates (5.0 μg). Group II includes three reactions to which both the PLG and BSA (0.5 μg each) are added in the first cycle of complex formation followed by another cycle of binding of the resulting complexes with the CE proteins (6.0 μg). Similarly, Group III includes three reactions each containing 5.0 μg of CE proteins and 5.0 μg of the abeta42 templates for complex formation in the first cycle of binding. The resulting complexes are subjected to another cycle of binding with both the PLG and BSA (0.5 μg each). […] After treating with the PLG activators, all the complexes are washed and finally suspended in 20 μl of PBS. After boiling the complexes for 10 min in sample solublizing buffer they are loaded into 4-20% gradient SDS-PAGE. Further, the gel is processed for silver staining and the results are documented for analysis. […]"}, "[4]": {"tested_on": "thrombus generated from the in vitro assembled plaques complexes", "assay": "Thrombolytic assay with PLG cascade proteins", "assay_type": "biochemical", "details": "thrombus from cholesterol, lipids, CP and CO complexes", "description": "To examine this, both PLG and PLG activators are used to target these clots. Thrombolytic assays are carried out in 100 μl reaction containing thrombus, generated from 100 μl of aggregates or plaque complexes, 1 μg of PLG and 20 ng of u-PA or t-PA in PBS buffer. The reactions are incubated at 37° C. for 1 hr and after every 15 min the tubes are gently tapped to mix the contents. After 1 hr incubation, 1 ml of PBS is added to all the tubes and the samples are visually examined for dissolution of the thrombus.\nThe thrombus generated from the cholesterol, lipids, CP, and CO complexes are incubated separately with PLG, u-PA and t-PA to examine whether these proteins individually could dissolve the clots.\nThis could be due to the inhibition of u-PA by the PAI-1 thereby preventing the activation of the PLG. In the next experiment, the aggregates of CP-Cholesterol, CP-Lipids, CP-Cholesterol-Lipids, Cholesterol-Lipids, CO-Cholesterol and CO-Lipids are individually used in CPA for five cycles to assemble complexes followed by their thrombus generation.\nThe example depicted in FIG. 18 illustrates the dissolution of thrombi by PLG and u-PA. […] Both the clots and the dissolved complexes are further examined under microscope to confirm the visual examination (FIGS. 18a, b, c and d). The thrombus formed in the urine is also dissolved by the action of PLG and u-PA."}, "[5]": {"tested_on": "iron loaded abeta42 aggregates mixed with CE proteins", "assay": "Proteolysis of amyloid plaque complexes assembled on iron loaded abeta42 aggregates", "assay_type": "biochemical", "details": "20 ng protease, 37° C., 1 hr", "description": "This example illustrates the use of the invention to evaluate the proteolytic degradation of the amyloid complexes. For example, iron loaded abeta42 aggregates are mixed with CE proteins, and the resulting template complexes are treated with five different serine proteases. More specifically, nine independent reactions are carried out with each containing 5.0 μg of the iron-loaded aggregates of abeta42 and 6.0 μg of the CE proteins. After incubation and washing, the complexes are suspended in 50 μl of PBS. The nine complexes are sub-divided into two groups, with six individual complexes comprising Group I and three complexes comprising Group II. In order to interrogate the role of the plasminogen (PLG) activation system, which is implicated in the catabolism of amyloid peptides as well as the pathobiology of amyloid diseases (Melchor J P et al, 2003; Van Nostrand W E et al, 1999; Kranenburg O, 2005), the Group II complexes are subjected to another cycle of binding with both PLG (0.5 μg) and BSA (0.5 μg) proteins. After binding and washing, the PLG and BSA bound plaques complexes are suspended in 50 μl of PBS.\nFor proteolysis analysis, five of the six Group I template complexes are incubated with 20 ng of each protease (plasnin, chymotrypsin, trypsin, proteinase K and urokinase). The remaining complex is used as a control without protease treatment. Among three complexes of the Group II containing PLG attached to them, one is treated with u-PA (20 ng), a second is treated with t-PA (20 ng) and the third complex is used as a control without protease treatment. All these plaque complexes are incubated at 37° C. for 1 hr and after every 15 min, the tubes are gently tapped in order to encourage mixing. After washing, both the proteases-treated and control plaque complexes are suspended in 20 μl PBS. The complexes are boiled for 10 min with sample solubilizing buffer and loaded in to 4-20% gradient SDS-PAGE. Further, the gels are processed for silver staining and the results are documented for further analysis."}, "[6]": {"tested_on": "thrombus, generated from the CP-Chl aggregates", "assay": "Effect of PGN27 on dissolution of thrombus", "details": "2 mM, 1 hr"}, "[7]": {"tested_on": "plaque accumulation in the heart tissues", "assay": "Drug treatment of asymptomatic induced atherosclerotic mice, histochemical analysis of heart tissues", "details": "5-10 mg/kg per day orally, 8 weeks"}, "CP aggregates [8]": {"tested_on": "CP aggregates", "assay": "Binding of PGN27 to CP aggregates and cyclic plaque assembly (CPA)"}, "[9]": {"tested_on": "plaque induced chronic inflammation", "assay": "Drug treatment of mice with plaque induced chronic inflammation", "details": "5-10 mg/kg per day orally, 8 weeks"}, "CP aggregates formation": {"tested_on": "CP aggregates formation", "assay": "Screen of known drugs for prevention of CP aggregates formation", "details": "for CP aggregates formation, dose dependence: sodium phosphate dibasic and calcium chloride 4 mM each"}, "[10]": {"tested_on": "CO, lipid and cholesterol aggregates formations", "assay": "Effect of PGN27 on CO, lipid and cholesterol aggregates formation"}, "CO aggregates": {"tested_on": "CO aggregates", "assay": "Binding of proteins with calcium containing aggregates", "details": "2 μg protein, 37° C., 1 hr", "description": "as §1"}, "[11]": {"tested_on": "CP, CC, CO, and CaPPD aggregates", "assay": "Binding of proteins with calcium containing aggregates (any of the four)", "details": "2 μg protein, 37° C., 1 hr", "description": "as §1, with “The calcium containing aggregates-protein complexes are suspended in 20 μl of PBS to which 5 μl of EDTA (25 mM final concentration) is added for solubilization of the complexes.” left out, “All the binding experiments and subsequent CPA experiments are carried out in low protein bind 1.7 ml centrifuge tubes (Effentorf, Calif.). For all the following binding experiments the same buffer, centrifugation and washing conditions are used.” left out"}}, "note": "Counter-ions that a name gives are not always drawn.", "data": [{"compound": "PLG: plasminogen", "values": [{"measurement": "Binding with iron-loaded abeta42 templates", "setting": "[1]", "value": "bind with the templates"}, {"measurement": "Binding with the CP aggregates", "setting": "CP aggregates [2]", "value": "detectable binding"}, {"measurement": "Activation of PLG bound in first cycle compared to second cycle, increasing u-PA", "setting": "[3]; 25, 50, 100 ng u-PA", "value": "exhibits resistance even when incubated with increased concentrations of the u-PA"}, {"measurement": "Activation of PLG bound in first cycle compared to second cycle", "setting": "[3]; u-PA (20 ng) or t-PA", "value": "detectable level of resistance to activation"}, {"measurement": "Dissolution of thrombus, protein incubated separately", "setting": "[4]", "value": "did not show any dissolution"}]}, {"compound": "chymotrypsin", "values": [{"measurement": "Degradation of proteins bound to the aggregates", "setting": "[5]", "value": "degraded"}]}, {"compound": "ProS: protein S", "values": [{"measurement": "Binding with iron-loaded abeta42 templates", "setting": "[1]", "value": "bind with the templates"}, {"measurement": "Binding with the CP aggregates", "setting": "CP aggregates [2]", "value": "detectable binding"}]}, {"compound": "CN(C)[C@@H]1C(O)=C(C(N)=O)C(=O)[C@@]2(O)C(O)=C3C(=O)c4c(O)cccc4[C@@](C)(O)[C@H]3C[C@@H]12", "note": "[PGN27, tetracycline hydrochloride]", "values": [{"measurement": "Dissolution of the thrombus", "setting": "[6]", "value": "no dissolution of the thrombus"}, {"measurement": "Plaque accumulation in heart tissues, histochemical analysis", "setting": "[7]", "value": "reduced plaque accumulation"}, {"measurement": "Binding with the CP aggregates (colorless to yellow)", "setting": "CP aggregates [8]; 2 mM, 37° C., 30 min", "value": "specific and stable binding"}, {"measurement": "Effect on binding of proteins with the CP aggregates in CPA", "setting": "CP aggregates [8]; CP-PGN27 complexes, four cycles of CPA, gel analysis", "value": "did not compete or affect binding of the proteins"}, {"measurement": "Symptoms of plaque inflammation compared to the control animal", "setting": "[9]", "value": "reduced symptoms of plaque inflammation"}, {"measurement": "CP aggregates formation in the presence of antibiotic", "setting": "CP aggregates formation; 5 mM drug, 5 mM sodium phosphate dibasic, 5 mM calcium chloride, 30 min 37° C.", "value": "prevented the CP aggregates formation"}, {"measurement": "CP aggregates formation, dose dependence", "setting": "CP aggregates formation; 0.5 and 0.25 mM drug", "value": "CP aggregates formation occurred"}, {"measurement": "CP aggregates formation, dose dependence", "setting": "CP aggregates formation; 4, 2 and 1 mM drug", "value": "did not show the CP aggregates formation"}, {"measurement": "Inhibition of CO, lipid and cholesterol aggregates formations", "setting": "[10]", "value": "did not inhibit"}]}, {"compound": "trypsin", "values": [{"measurement": "Degradation of proteins bound to the aggregates", "setting": "[5]", "value": "degraded"}]}, {"compound": "C3: complement factor 3", "values": [{"measurement": "Binding with the CP aggregates", "setting": "CP aggregates [2]", "value": "detectable binding"}]}, {"compound": "FIX: coagulation factor IX", "values": [{"measurement": "Binding with iron-loaded abeta42 templates", "setting": "[1]", "value": "bind with the templates"}, {"measurement": "Binding with the CP aggregates", "setting": "CP aggregates [2]", "value": "detectable binding"}, {"measurement": "Binding with the CO aggregates", "setting": "CO aggregates", "value": "detected for binding"}]}, {"compound": "HIN: human insulin", "values": [{"measurement": "Binding with any of the CP, CC, CO, CaPPD aggregates", "setting": "[11]", "value": "no detectable binding"}, {"measurement": "Binding with iron-loaded abeta42 templates", "setting": "[1]", "value": "no detectable binding"}]}, {"compound": "rhHGF: recombinant human hepatocyte growth factor", "values": [{"measurement": "Binding with iron-loaded abeta42 templates", "setting": "[1]", "value": "bind with the templates"}]}, {"compound": "CD: complement factor D", "values": [{"measurement": "Binding with iron-loaded abeta42 templates", "setting": "[1]", "value": "bind with the templates"}]}, {"compound": "CB: complement factor B", "values": [{"measurement": "Binding with iron-loaded abeta42 templates", "setting": "[1]", "value": "bind with the templates"}]}]}
